# Reference: patent US20240199587A1, “HETEROCYCLIC COMPOUNDS” (Hoffmann-La Roche Inc., priority 2021, published 2024)
# Target: T1, MAGL (Homo sapiens, UniProt Q99685)
# T1 sequence (Q99685 1-303): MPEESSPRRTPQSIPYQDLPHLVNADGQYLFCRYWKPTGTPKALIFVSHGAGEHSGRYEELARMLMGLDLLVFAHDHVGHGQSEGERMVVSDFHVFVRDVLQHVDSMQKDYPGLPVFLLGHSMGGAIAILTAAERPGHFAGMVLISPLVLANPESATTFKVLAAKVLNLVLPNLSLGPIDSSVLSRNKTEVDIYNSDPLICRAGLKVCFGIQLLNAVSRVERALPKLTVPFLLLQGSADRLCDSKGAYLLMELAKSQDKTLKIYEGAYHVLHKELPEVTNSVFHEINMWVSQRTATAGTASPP
# Test: 2-AG assay (MAGL inhibitory activity, hydrolysis of 2-arachidonoylglycerol to arachidonic acid followed by mass spectrometry)
# Assay type: biochemical
# Settings: 8 μM 2-arachidonoylglycerol, 15 min pre-incubation, 30 min incubation at RT, RapidFire MS readout
# How it was run: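 Human MAGL ([…] final) pre-incubated 15 min at RT with compound in 50 mM TRIS, 1 mM EDTA, 0.01% Tween-20, 2.5% DMSO; 8 μM 2-AG then added for 30 min at RT. Acetonitrile quench with d8-arachidonic acid; arachidonic acid measured by RapidFire SPE–MS/MS, activity from arachidonic acid/d8 ratio.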
row,SMILES,IC50 [nM]
1,"CS(=O)(=O)c1cc(O[C@H]2C[C@@H]3CN(C(=O)N4CC5(CC(n6cnc(C7CC7)n6)C5)C4)C[C@@H]3C2)ccc1F [Example 130, [6-(3-cyclopropyl-1,2,4-triazol-1-yl)-2-azaspiro[3.3]heptan-2-yl]-[rac-(3aS,6aR)-5-(4-fluoro-3-methylsulfonyl-phenoxy)-3,3a,4,5,6,6a-hexahydro-1H-cyclopenta[c]pyrrol-2-yl]methanone]",47.6
2,"CS(=O)(=O)c1ccc(CN2CCC3(CC2)CN(C(=O)N2CC4(CC(n5cnc(C6CC6)n5)C4)C2)C3)cc1 [Example 486, [6-(3-cyclopropyl-1,2,4-triazol-1-yl)-2-azaspiro[3.3]heptan-2-yl]-[7-[(4-methylsulfonylphenyl)methyl]-2,7-diazaspiro[3.5]nonan-2-yl]methanone]",14.6
3,"O=C(N1CC2(CC(n3cnc(C4CC4)n3)C2)C1)N1CC2(C1)CN(S(=O)(=O)CC1CCCCC1)C2 [Example 244, [2-(cyclohexylmethylsulfonyl)-2,6-diazaspiro[3.3]heptan-6-yl]-[6-(3-cyclopropyl-1,2,4-triazol-1-yl)-2-azaspiro[3.3]heptan-2-yl]methanone]",9
4,"O=C(N1CC(c2ccc(C3(C(F)(F)F)CC3)cc2)C1)N1CC2(CC(n3cnc(C4CC4)n3)C2)C1 [Example 1, (6-(3-cyclopropyl-1H-1,2,4-triazol-1-yl)-2-azaspiro[3.3]heptan-2-yl)(3-(4-(1-(trifluoromethyl)cyclopropyl)phenyl)azetidin-1-yl)methanone]",0.1
5,"O=C(N1CC(Oc2nccc(C3CC3)c2F)C1)N1CC2(CC(n3cnc(C4CC4)n3)C2)C1 [Example 204, [3-[(4-cyclopropyl-3-fluoro-2-pyridyl)oxy]azetidin-1-yl]-[6-(3-cyclopropyl-1,2,4-triazol-1-yl)-2-azaspiro[3.3]heptan-2-yl]methanone]",0.8
6,"O=C(N1CC(C23CC(Cc4ccc(C(F)(F)F)nc4)(C2)C3)C1)N1CC2(CC(n3cnc(C4(O)CC4)n3)C2)C1 [Example 382, [6-[3-(1-hydroxycyclopropyl)-1,2,4-triazol-1-yl]-2-azaspiro[3.3]heptan-2-yl]-[3-[3-[[6-(trifluoromethyl)-3-pyridyl]methyl]-1-bicyclo[1.1.1]pentanyl]azetidin-1-yl]methanone]",52.4
7,"O=C(N1CC2(CC(c3ccc(C(F)(F)F)nc3)C2)C1)N1CC2(CC(c3ccc(C(F)(F)F)nc3)C2)C1 [Example 522, bis[6-[6-(trifluoromethyl)-3-pyridyl]-2-azaspiro[3.3]heptan-2-yl]methanone]",849
8,"O=C(N1CC2(CC(n3cnc(C4(O)CC4)n3)C2)C1)N1CC2(CC[C@H](Cc3ncc(F)cc3F)C2)C1 (stereo in doubt) [Example 351, [6-[3-(1-hydroxycyclopropyl)-1,2,4-triazol-1-yl]-2-azaspiro[3.3]heptan-2-yl]-[(6S)-6-[(3,5-difluoro-2-pyridyl)methyl]-2-azaspiro[3.4]octan-2-yl]methanone]",24.7
9,"O=C(c1ccc(F)cc1C(F)(F)F)N1CC2(C1)CN(C(=O)N1CC3(CC(n4cnc(C5CC5)n4)C3)C1)C2 [Example 275, [2-[6-(3-cyclopropyl-1,2,4-triazol-1-yl)-2-azaspiro[3.3]heptane-2-carbonyl]-2,6-diazaspiro[3.3]heptan-6-yl]-[4-fluoro-2-(trifluoromethyl)phenyl] methanone]",35.3
10,"N#Cc1cc(C(F)(F)F)ncc1O[C@H]1CCC2(C1)CN(C(=O)N1CC3(CC(n4cnc(C5(O)CC5)n4)C3)C1)C2 [Example 387, 5-[[(6S)-2-[6-[3-(1-hydroxycyclopropyl)-1,2,4-triazol-1-yl]-2-azaspiro[3.3]heptane-2-carbonyl]-2-azaspiro[3.4]octan-6-yl]oxy]-2-(trifluoromethyl)pyridine-4-carbonitrile]",196
11,"CS(=O)(=O)c1ccc(CC2CC3(C2)CN(C(=O)N2CC4(CC(c5ccc(C(F)(F)F)nc5)C4)C2)C3)cc1 [Example 530, [6-[(4-methylsulfonylphenyl)methyl]-2-azaspiro[3.3]heptan-2-yl]-[6-[6-(trifluoromethyl)-3-pyridyl]-2-azaspiro[3.3]heptan-2-yl]methanone]",350
12,"NC(=O)c1ccccc1-c1ccc(C2CN(C(=O)N3CC4(CC(n5cnc(C(F)(F)F)n5)C4)C3)C2)cc1 [Example 429, 2-[4-[1-[6-[3-(trifluoromethyl)-1,2,4-triazol-1-yl]-2-azaspiro[3.3]heptane-2-carbonyl]azetidin-3-yl]phenyl]benzamide]",0.66
13,"O=C(N1CC(c2ccn(CC(F)(F)F)c(=O)c2)C1)N1CC2(CC(n3cnc(C4CC4)n3)C2)C1 [Example 261, 4-[1-[6-(3-cyclopropyl-1,2,4-triazol-1-yl)-2-azaspiro[3.3]heptane-2-carbonyl]azetidin-3-yl]-1-(2,2,2-trifluoroethyl)pyridin-2-one]",24.2
14,"Cc1cc(C(=O)N2CC3(CC(n4cnc(C5CC5)c4)C3)C2)cnc1OCC1(C)CC1 [Example 142, [6-(4-cyclopropylimidazol-1-yl)-2-azaspiro[3.3]heptan-2-yl]−[5-methyl-6-[(1-methylcyclopropyl)methoxy]-3-pyridyl]methanone]",31.3
15,"CS(=O)(=O)c1cncc(CC2CC3(C2)CN(C(=O)N2CC4(CC(n5cnc(C(F)(F)F)n5)C4)C2)C3)c1 [Example 457, [6-[(5-methylsulfonyl-3-pyridyl)methyl]-2-azaspiro[3.3]heptan-2-yl]-[6-[3-(trifluoromethyl)-1,2,4-triazol-1-yl]-2-azaspiro[3.3]heptan-2-yl]methanone]",11
16,"CS(=O)(=O)c1cc(F)ccc1OC1CCC2(CC1)CN(C(=O)N1CC3(CC(n4cnc(C5CC5)n4)C3)C1)C2 [Example 238, [6-(3-cyclopropyl-1,2,4-triazol-1-yl)-2-azaspiro[3.3]heptan-2-yl]-[7-(4-fluoro-2-mesyl-phenoxy)-2-azaspiro[3.5]nonan-2-yl]methanone]",6.5

# Further lines, results first:
row,IC50 [nM],SMILES
1,12.2,"O=C(N1CC2(CC(n3cnc(C4CC4)n3)C2)C1)N1CC2(C1)CN(S(=O)(=O)NCC1(C(F)(F)F)CC1)C2 [Example 247, 6-[6-(3-cyclopropyl-1,2,4-triazol-1-yl)-2-azaspiro[3.3]heptane-2-carbonyl]-N-[[1-(trifluoromethyl)cyclopropyl]methyl]-2,6-diazaspiro[3.3]heptane-2-sulfonamide]"
2,91.5,"O=C(N1CC2(CC(n3cnc(C4CC4)n3)C2)C1)N1CC2(C1)CN(S(=O)(=O)CC1CC1)C2 [Example 296, [2-(cyclopropylmethylsulfonyl)-2,6-diazaspiro[3.3]heptan-6-yl]-[6-(3-cyclopropyl-1,2,4-triazol-1-yl)-2-azaspiro[3.3]heptan-2-yl]methanone]"
3,85.5,"O=C(N1CC(c2cn(C3(C(F)(F)F)COC3)nn2)C1)N1CC2(CC(n3cnc(C4CC4)n3)C2)C1 [Example 167, [6-(3-cyclopropyl-1,2,4-triazol-1-yl)-2-azaspiro[3.3]heptan-2-yl]-[3-[1-[3-(trifluoromethyl)oxetan-3-yl]triazol-4-yl]azetidin-1-yl]methanone]"
4,0.2,"O=C(N1CC(c2ccc(C3(C(F)(F)F)CC3)cc2)C1)N1CC2(CC(n3cnc(C4CC4)c3)C2)C1 [Example 48, [6-(4-cyclopropylimidazol-1-yl)-2-azaspiro[3.3]heptan-2-yl]-[3-[4-[1-(trifluoromethyl)cyclo-propyl]phenyl]azetidin-1-yl]methanone]"
5,4.7,"O=C(N1CC(C#Cc2ccccc2C(F)F)C1)N1CC2(CC(n3cnc(C4CC4)n3)C2)C1 [Example 107, [6-(3-cyclopropyl-1,2,4-triazol-1-yl)-2-azaspiro[3.3]heptan-2-yl]-[3-[2-[2-(difluoromethyl)phenyl]ethynyl]azetidin-1-yl]methanone]"
6,4.6,"Cc1cc(O[C@H]2C[C@@H]3CN(C(=O)N4CC5(CC(n6cnc(C7CC7)n6)C5)C4)C[C@@H]3C2)ccc1F [Example 125, [6-(3-cyclopropyl-1,2,4-triazol-1-yl)-2-azaspiro[3.3]heptan-2-yl]-[rac-(3aS,6aR)-5-(4-fluoro-3-methyl-phenoxy)-3,3a,4,5,6,6a-hexahydro-1H-cyclopenta[c]pyrrol-2-yl]methanone]"
7,0.98,"O=C(N1CC2(CC(Cc3ccc(C(F)(F)F)nc3)C2)C1)N1CC2(CC(n3cnc(C4(O)CC4)n3)C2)C1 [Example 495, [6-[3-(1-hydroxycyclopropyl)-1,2,4-triazol-1-yl]-2-azaspiro[3.3]heptan-2-yl]-[6-[[6-(trifluoromethyl)-3-pyridyl]methyl]-2-azaspiro[3.3]heptan-2-yl]methanone]"
8,1060,"CP(C)(=O)c1ccc(COC2CN(C(=O)N3CC4(CC(n5cnc(C6CC6)n5)C4)C3)C2)cc1 [Example 415, [6-(3-cyclopropyl-1,2,4-triazol-1-yl)-2-azaspiro[3.3]heptan-2-yl]-[3-[(4-dimethylphosphorylphenyl)methoxy]azetidin-1-yl]methanone]"
9,0.06,"N=S(=O)(c1ccc(CC2CC3(C2)CN(C(=O)N2CC4(CC(n5cnc(C6CC6)n5)C4)C2)C3)cc1)C(F)(F)F (centres unmarked) [Example 446, [6-(3-cyclopropyl-1,2,4-triazol-1-yl)-2-azaspiro[3.3]heptan-2-yl]-[6-[[4-(trifluoromethylsulfonimidoyl)phenyl]methyl]-2-azaspiro[3.3]heptan-2-yl]methanone]"
10,48.3,"O=C(N1CC(Oc2ccnc(C(F)(F)F)n2)C1)N1CC2(CC(n3cnc(C4CC4)n3)C2)C1 [Example 283, [6-(3-cyclopropyl-1,2,4-triazol-1-yl)-2-azaspiro[3.3]heptan-2-yl]-[3-[2-(trifluoromethyl)pyrimidin-4-yl]oxyazetidin-1-yl]methanone]"
